# In patent publication US20030186943A1, “Substituted gamma-phenyl-delta-lactams and uses related thereto” (Inflazyme Pharmaceuticals Ltd., priority 1998, published 2003):
# Where “and” joins values, the source holds several entries; their conditions need not be identical. Equal entries are not always repeated.
# Columns and labels:
# [1] = tested on: tail skin allograft rejection (C57BL/6 donor, BALB/c recipient mice); experiment: Murine tail skin allograft transplantation model; assay type: in vivo, mouse; settings: 10 mg/kg i.p. twice daily
# Protocol: Tail skin from donor H-2 b C57BL/6 mice was transplanted onto recipient female H-2^d BALB/c mice (Lagodzinski, Z. et al., Immunology 71:148-150 (1990)). Five mice were included per group. […] Test compounds and CsA were administered twice daily intraperitoneally at a dose of 10 mg/kg beginning at one day prior to transplantation and for 15 days after transplantation, including the day of transplantation. Mice were monitored and scored daily over 15 days post transplantation for graft rejection.
# Skin allograft rejection is primarily mediated by T lymphocytes with little evidence for a major role of antibodies under most circumstances. Skin allograft rejection requires the activation of helper and cytotoxic effector T cell populations. Graft rejection was assessed by monitoring allograft necrosis. Because tail skin is visibly distinct from the surrounding trunk skin of the mouse, the course of rejection can be easily monitored. Fully intact grafts were scored as 100%. Complete graft rejection was defined as >90% graft necrosis. Acute graft rejection generally proceeds via a series of visually obvious events beginning with swelling and erythema of the graft. These events are followed by graft desiccation and scab formation over most or all of the graft, signaling the loss of the viable graft tissue. Scab formation is subsequently followed by shrinkage and scar formation.
# [2] = tested on: Th1 cells; experiment: Proliferation of differentiated Th1 CD4+ T cells; assay type: cell-based, mouse; settings: CD4+ T cells already differentiated into Th1 phenotype
# Protocol: The differentiation of naive CD4 T cells toward Th1 and Th2 lineages was performed as follows: 1×10^5 AND-lymph node T cells were cultured with […] B10.BR irradiated spleen cells in 2 ml of culture media with the following supplements: for Th1 cell differentiation, 100 U/mL IFNγ, 25U/mL IL2 and 10 ug/mL anti-IL4; for Th2 cell differentiation, 150 U/mL IL4, 25 U/mL IL2 and 10 ug/mL anti-IFNγ. After 3-4 days the wells were split 1:4 with the same additions. After 7 days the cells were harvested and washed 3 times to remove cytokines in the supernatents. 1×10^5 cultured cells were restimulated with 5×10^5 irradiated B10BR spleen cells +5 μM pcc peptide in 250 μl culture media without any added cytokines. The supernatents were harvested after 40 hrs and assessed for IL2, IL4 and IFNγ by ELISA. Test compounds were added throughout the differentiation of the culture.
# Cultured Th1 and Th2 cells generated in the absence of test compounds were tested for proliferation and cytokine activity as described above during antigen stimulation in the presence of compound.
# [3] = tested on: CD8+ T-cells; experiment: CD8+ T-cell proliferation (2C-TCR transgenic); assay type: cell-based, mouse; settings: at 5 μM
# From the text: 2C-TCR transgenic mice (Sha W. C. et al., Nature 335:271-274, 1988) were used to provide a source of naive antigen specific CD8+T cells. The 2C-T cell antigen receptor recognizes the 2C peptide derived from the mitochondrial alpha-ketoglutarate dehydrogenase enzyme in the context of the Db class I MHC molecule.
# To test the efficacy of a test compound in naive CD8+ T cell activation and proliferation, single cell suspensions of 2C lymph node (LN) T cells were isolated from 2C-TCR transgenic mice. 2C-T cells were stimulated with irradiated TAP−/− H-2d splenocytes or L^d transfected TAP−/− T2 cell line in the presence of varying concentrations of 2C peptide (0-10 uM). Proliferation was assessed by ^3H thymidine incorporation. Cell surface activation phenotype of T cells was performed by flow cytometric analysis
# [4] = tested on: IL-2 production in concanavalin A stimulated primary human CD4+ T-cells; experiment: IL-2 production (Th1 profile) in concanavalin A stimulated primary human CD4+ T-cells; assay type: cell-based
# From the text: (§1) The assay on the primary human T-cells involves their activation by concanavalin A (conA); (Sigma, Catalogue No. C 5275), followed by ELISA detection for cytokines for either profile. In the case of Th1-profiles, IL-2 and INF-γ are used as benchmarks while IL-10 is the indicator for a Th2-profile. Biologically, these indicators are useful in that IL-2 is the major T-cell mitogen while IL-10 represents a powerful yet selective immunosuppressive agent.
# (§2) Approximately 60 cc of whole human blood was collected into ACD anti-coagulant vacutainer tubes. 15 mL Ficoll Paque 1077 was aliquoted into 6 sterile 50 mL conical tubes. 10 mL of blood was slowly layered on top of the Ficoll Paque by holding the tube upright and resting the pipette tip at the inside edge of the tube and allowing the blood to slowly run down the side of the tube. Tubes were spun at 1700 rpm for 30 minutes at room temperature. The plasma layer above the leukocyte band was aspirated off and a pasteur pipette was used to lift off the leukocyte band and transfer it to a sterile 50 mL conical tube. Cells from each leukocyte gradiant tube were transferred to a separate 50 mL conical tube. Sterile PBS pH 7.4 was added to each 50 mL conical tube containing cells from leukocyte band to a volume of 50 mL. Tubes were spun at 1100 rpm for 10 minutes. Supernatant was aspirated off and the cells were resuspended in 50 mL PBS pH 7.4. Tubes were re-centrifuged at 1100 rpm for 10 minutes. Supernatant was aspirated off and the cells were resuspended in appropriate medium at a density of 5×10^7 cells/mL or 2×10^6 cells/mL.
# (§3) CD 4+T-cell Preparation: Cells from Leukocyte preparation were resuspended in sterile PBS pH 7.4 supplemented with 2-6% Fetal Bovine Serum (FBS) at a density of 5×10^7 cells/mL. Cells were then ready for isolation.
# (§4) 100 μL of antibody cocktail (Stem Cell Technologies, Catalogue No. 14062) was added for each mL of cells and mixed well. Cells+Ab cocktail was incubated on ice for 30 minutes. After 30 minute incubation, 60 μL of magnetic colloid was added for each mL of cells, and mixed well. Cells+Ab cocktail+magnetic colloid were incubated on ice for 30 minutes. After a final 30 minute incubation cells were ready for magnetic cell separation.
# (§5) Sample was loaded into the top of a column. The stopcock was turned to allow the flow of media down through the column, and the media was collected into a collection tube. PBS supplemented with 2-6% FBS was added to the column until three column volumes had been collected (not including the volume of the start sample). Cells were washed, counted, and resuspended in RPMI 1640 with 10% FBS+2 mM L-glutamine at a density of 1×10^6 cells/mL.
# (§6) CD4+ T-cells were isolated as described above. Cells were suspended in RPMI 1640 media (Stem Cell Technologies Inc.; Catalogue No. 36750) with 10% FBS+2 mM L-glutamine at a density of 1×10^6 cells/mL. Cells were maintained on ice as test compounds were prepared. Test compounds were prepared in a sterile 96-well assay plate at 50×the final desired test concentration, all wells contained an equal amount of dimethylsulfoxide vehicle. 500 μL of CD4^+ T-cells were added to each well of 24-well assay plate. 10 μL of each test compound working solution was added to the appropriate wells; two wells were left as stimulated and non-stimulated controls. 10 μL of concanavalin A (50×the final concentration) at 10 μg/mL was added to each well with the exception of the non-stimulated control wells. Cells were incubated at 37° C. for 48 hours. Conditioned media is then assessed by ELISA for the quantity of IL-2, […], TNFα and IL-10 present.
# (§7) Tables 5A, 5B and 5C represent a synopsis of data across individuals with respects to the potency of compounds of the invention in their ability to inhibit cytokines that are likely to promote or depress a Th1 or Th2 response. […]
# [5] = tested on: High Affinity Rolipram Binding Site of PDE4 in Mouse Brain; experiment: Displacement of [3H]-rolipram from its high affinity binding site (HARBS); settings: ratio of IC50 for PDE4 catalytic activity to concentration displacing 50% of rolipram from HARBS
# [6] = tested on: TNBS-induced colitis in the rat; experiment: TNBS-induced colitis model of inflammatory bowel disease in the rat;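 further: rat colitis induced by intracolonic TNBS in 50% ethanol, distal colon assessed at sacrifice on day 7, with saline-instilled vehicle-treated rats as controls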
# Protocol: Colitis was induced by intracolonic instillation of the hapten TNBS (60 mg/mL) in 0.5 mL of 50% ethanol. […] An additional group of rats received saline intracolonically in place of TNBS/ethanol and was treated with vehicle at the same times as outlined above. Body weights were recorded at the beginning of the study and at days 2 and 7.
# The rats were sacrificed on the 7th day after the induction of colitis and the extent of damage and inflammation was assessed. After the rats were sacrificed, the distal colon was removed and pinned out on a wax platform. The presence or absence of diarrhea was noted, as well as the presence and severity of adhesions between the colon and other organs, and the severity and extent of colonic damage. […] After scoring, a sample of colonic tissue was excised for measurement of myeloperoxidase activity as an index of granulocyte infiltration (see Wallace et al., Gastroenterology 117: in press, 1999; and Morris et al., Gastroenterology 96:795-803, 1989). This tissue sample was 1 cm long (along the axis of the colon) and 5 mm wide and was taken from a region of macroscopically visible damage (or the corresponding region in any rats in which there was no damage). The remainder of the tissue was fixed in neutral buffered formalin and processed by routine methods for subsequent evaluation by light microscopy. In a blinded manner, the sample of colonic tissue from each rat was examined for evidence of mucosal ulceration and inflammation. The percentage of the luminal surface of the section in which ulceration was present was calculated.
# [7] = tested on: TNBS-induced colitis in the rat; settings: dose reduced to 50 mg/kg; cited from earlier work
# [8] = tested on: High Affinity Rolipram Binding Site of PDE4 in Mouse Brain; settings: values reported for second-generation PDE4 inhibitors; cited from earlier work
# [9] = tested on: TNF-α production in concanavalin-A stimulated primary human CD4+ T-lymphocytes; experiment: TNF-α production in Con-A stimulated human CD4+ T-cells (ELISA); assay type: cell-based; settings: T-lymphocyte, X marks this range, read-out: TNF-alpha IC50 RANGE (μM) <2
# Protocol: Activated T-lymphocytes are known to produce TNF-α and may constitute a significant source of this important inflammatory mediator in localized regions of inflammation such as the rheumatoid synovium or psoriatic lesions. Supernatants from cona-stimulated primary human CD4+ T-cells that had been incubated in the presence or absence of a test compound were analyzed for TNF-α using an ELISA system. (Pharingen; recommended anti-TNF antibody set 18631-D and 18642-D). Substantial quantities of TNF-α were induced in vehicle treated T-cells stimulated with conA. […] This may be due to the differing sensitivity of monocyte/macrophages versus T-lymphocytes to elevations in intracellular cAMP with respect to regulatory pathways impacting TNF-α production.
# as §2, §3, §4, §5, §6
# [10] = tested on: K562 chronic myelogenous leukemia cells; experiment: Anti-proliferative activity in K562 cells (3H-thymidine uptake); assay type: cell-based, human; settings: Homo sapiens; K562, 48 hours, 3H-thymidine; X marks this range; read-out: IC50 range (μM) >50
# Protocol: 90 μL K562 cells (human chronic myelogenous leukemia cells) were seeded into sterile 96-well assay plates at a density of 1×10^5 cells/mL in RPMI 1640 supplemented with 10% FBS/2 mM L-glutamine. Samples to be tested were prepared in a sterile 96-well assay plate at 10×the final concentration desired. All sample dilutions contained equal amounts of DMSO to compensate for the % DMSO in the highest sample concentration used. Nine concentrations of test compound were examined for effects on growth up to a maximal concentration of 100 μM. 10 μL of the samples and controls (DMSO/normal growth control) were added to the aliquoted cells. The cells were incubated at 37° C./5% CO2 for 48 hours. Following 48 hour incubation, 20 μL of 3H-thymidine was added to each well for a final concentration of 1 μCi/mL. The cells were then incubated at 37° C./5% CO2 for 4 to 6 hours. Following 4-6 hour thymidine pulse, plates were wrapped in plastic and frozen in a −20° C. frost-free freezer overnight. Cells were harvested and ^3H-thymidine counts determined. In order to distinguish between cytotoxicity and cytostatic activity, growth curves were prepared where the average CPM value of the seeding density of cells was plotted on the same curve as the average CPM value for the maximum proliferation attained after 48 hours (DMSO growth control cells). The cells were diluted 1:2 for a concentration range of 7.8×10^3 cells/mL to 2×10^6 cells/mL. 90 μL of each cell dilution was seeded in sterile 96-well assay plated and allowed to equilibrate for approximately 4 hours at 37° C./5% CO2 prior to ^3H-thymidine pulse. The data in Table 15 was obtained as described above, and more specifically, K562 cells were seeded into 96-well plates at 1×10^5 cells/mL in RPMI 1640 supplemented with 10% FBS/2 mM L-glutamine. Various concentrations of test compound or vehicle (DMSO) was added and the cells were incubated at 37° C./5 CO2 for 48 hours. The cells were then pulsed at 37° C./5% CO2 for 4 to 6 hours with 1 μCi/mL ^3H-thymidine. Radioactivity incorporated into DNA was determined after harvesting onto glass fiber filters and scintillation counting.
# [11] = tested on: IL-10 production in concanavalin A stimulated primary human CD4+ T-cells; experiment: IL-10 production (Th2 profile) in concanavalin A stimulated primary human CD4+ T-cells; assay type: cell-based; settings: T-cell, 10 μg/mL Concanavalin A, 48 hours, X marks this range, read-out: IL-10 IC50 RANGE (μM) 0.02-0.2
# From the text: as §1, §2, §3, §4, §5, §6, §7
# [12] = tested on: IFN-gamma production in concanavalin A stimulated primary human CD4+ T-cells; experiment: IFN-gamma production (Th1 profile) in concanavalin A stimulated primary human CD4+ T-cells; assay type: cell-based; settings: T-cell, 10 μg/mL Concanavalin A, 48 hours, X marks this range, read-out: INF-GAMMA IC50 RANGE (μM) 0.2-2.0
# From the text: as §1, §2, §3, §4, §5, §6, §7
# [13] = 100 mg/kg intracolonically at 12 h intervals for one week
# [14] = 100 mg/kg intracolonically at 12 h intervals for one week, day 7
structure (smiles),measurement,setting,value
COc1ccc([C@H]2COC(=O)C(Cc3ccc(OC4CCCC4)c(OC)c3)C2)cc1OC (some centres unmarked) [Compound 136],Average graft survival,[1]; from one day prior to and for 15 days after transplantation,15.4 days and 15.4 ± 1.3 days
same,Allograft survival rate (% at 9 days post-transplant),[1]; 9 days post-transplant,100%
same,# grafts surviving beyond 16 days p.t.,[1]; five mice per group,3
same,inhibition of Th1 cells,[2],approx. 30%
same,inhibition of CD8+ T-cell proliferation,[3],approx. 40%
same,Th1 versus Th2 cytokine profile,[4]; conA stimulated CD4+ selected cells,selective inhibition of a Th1 profile
same,PDE4:HARBS,[5],<1
Nc1ccc(O)c(C(=O)OCCCCO[N+](=O)[O-])c1 [NCX-456],Body Weight Change (%),[6]; [13],−5.7 ± 0.3%
same,Mortality,[6]; [13],1/8
same,Adhesion (Incidence),[6]; [14],(2/7)^ζ
same,Adhesion Score,[6]; [14],0.4 ± 0.3
same,Bowel Thickness (mm),[6]; [14],2.02 ± 0.42 mm
same,Damage Score,[6]; [14],3.7 ± 0.9
same,Global Colitis Score,[6]; [14],6.60 ± 1.67
same,reduction in the colonic damage score,"[6]; 100 mg/kg, one week",50%
same,MPO Activity (U/mg),"[6]; colonic tissue, 100 mg/kg intracolonically at 12 h intervals for one week, day 7",57.8 ± 11.6 U/mg
same,Diarrhea,"[6]; incidence, 100 mg/kg intracolonically at 12 h intervals for one week, day 7",3/7
same,Histology Score,"[6]; percentage of luminal surface ulcerated, 100 mg/kg intracolonically for one week, day 7",46.4 ± 4.1
same,therapeutic effects in TNBS model at reduced dose,[7],lost
COc1ccc(C(=O)Nc2c(Cl)cncc2Cl)cc1OC1CCCC1 [RP 73401],ratio of IC50's for PDE4catalytic to PDE4HARBS (reported),[8],3
COc1ccc([C@]2(C#N)CC[C@@H](C(=O)O)CC2)cc1OC1CCCC1 [SB 207499],ratio of IC50's for PDE4catalytic to PDE4HARBS (reported),[8],1
"COc1cc(-c2ccc(=O)[nH]n2)ccc1OC(F)F [Zardaverine, reference compound]",IC50,[9],< 2 µM
same,IC50,"[4]; Homo sapiens, T-cell, 10 μg/mL Concanavalin A, 48 hours, X marks this range, read-out: IL-2 IC50 RANGE (μM) 0.2-2.0",0.2 to 2 µM
same,IC50,[10],> 50 µM
same,IC50,[11],0.02 to 0.2 µM
same,IC50,[12],0.2 to 2 µM
